Measured values reported in patent publication US8604059B2, “Thioxanthene derivatives for the treatment of infectious diseases” (BKG Pharma APS, priority 2009, dated 2013).
In brackets after ≈: the same amount, converted by molar mass. Read-outs that look alike come from different tables or passages of the source. Each block holds one compound with its values, some of them ahead of it.

Experiments:
strain IIIB of HIV-1 = assay: Inhibition of HIV-1 replication in MT4 cells, MTT assay; type: cell-based; details: Human immunodeficiency virus 1, IIIB
Description: The enhancing effect of compound 3 on anti-viral agents was studied by checkerboard combination studies exposing HIV infected cells to 0-3 μM anti-viral agent in the absence or presence of compound 3 in concentrations from 0 to 6 μM. Each experiment was repeated in tripleduplicate. MIC values represent the mean values of two separate experiments.
The HIV-1 strain HTLV-IIIB were propagated in H9 cells at 37° C., 5% CO2 using RPMI 1640 with 10% heat-inactivated foetal calf serum (FCS) and antibiotics (growth medium). Culture supernatant was filtered ([…]), aliquotted, and stored at −80° C. until use. The HIV-1 strain was obtained from NIH AIDS Research and Reference Program.
(§1) Compounds were examined for possible antiviral activity against strain IIIB of HIV-1 using MT4 cells as target cells. MT4 cells were incubated with virus (0.005 MOI) and growth medium containing the test dilutions of compound(s) for six days in parallel with virus-infected and uninfected control cultures without compound added. Expression of HIV in the cultures was indirectly quantified using the MTT assay as previously described. Compounds mediating less than 30% reduction of HIV expression were considered without biological activity. Compounds were tested in parallel for cytotoxic effect in uninfected MT4 cultures containing the test dilutions of compound as described above. Cultures for test of both antiviral activity and cytotoxic effect were set up in tripleduplicates, […] per culture in micro titre plates. A 30% inhibition of cell growth relative to control cultures was considered significant. The 50% inhibitory concentration was determined by interpolation from the plots of percent inhibition versus concentration of compound.
EC50 is defined as the effective concentration that inhibits 50% of viral production, 50% of viral infectivity, or 50% of the virus-induced cytopathic effect.

MT4 cells = assay: Cytotoxic effect in uninfected MT4 cultures; type: cell-based; details: read-out: CC50 A + C3 (1 μM); AZT in presence of compound 3 at 1 μM
Description: as §1
(§2) CC50 is defined as the inhibitory concentration that reduces cellular growth or viability of uninfected cells by 50%.

[1] = Cytotoxic effect in uninfected MT4 cultures; type: cell-based; details: human, uninfected MT4 cells; single agent; uninfected MT4
Description: as §1, §2

[2] = test system: S. aureus MRSA clinical isolates; assay: FIC index, synergy with antibiotics (Table 4a); type: cell-based, Staphylococcus aureus; details: with Dicloxacillin; 8 MRSA; mean; compound at ¼ of MIC
Description: (§3) The effect of the compounds was tested according to the methods described in WO2005/105145. In brief, cell growth was tested using the MIC susceptibility tests by use of the microdilution broth method in accordance to the NCCLS Guidelines (NCCLS Guidelines, Methods for Dilution Antimicrobial Susceptibility Tests for Bacteria That Grow Aerobically; Approved Standard, Sixth Edition, Volume 23; Number 2).
(§4) The Fractional Inhibitory Concentration (FIC) index were calculated for each compound as described in WO2005/105145. Synergy was defined for Fractional Inhibitory Concentration (FIC) indices less than 0.5
Staphylococcus aureus: 8 (MRSA) in vivo-selected clinical isolates. Resistant to methicillin and beta-lactam antibiotics. Susceptible to teicoplanin chloramphenicol, fosfomycin, netilmicin and vancomycin.

[3] = test system: E. coli MDR clinical isolates; assay: FIC index, synergy with antibiotics (Table 4a); type: cell-based; details: 8 MDR E. coli, mean, compound at ¼ of MIC
Description: as §3, §4
E. coli: 8 in vivo-selected multidrug resistant clinical isolates of E. coli. Resistant to tetracycline, beta-lactams, fluoroquinolones, chloramphenicol and aminoglycoside

[4] = test system: Multiresistant clinical isolates E. coli; assay: Maximal reversal of resistance and synergistic effect (Table 4c); type: cell-based; details: E. coli multiresistant isolates
Description: The maximal obtained reversal of resistance and synergistic effect was tested as previously described.
Strains: Multiresistant clinical isolates E. coli, Ten strains in each group.

[5] = test system: E. faecalis MDR/VRE clinical isolates; assay: FIC index, synergy with antibiotics (Table 4a); type: cell-based, Enterococcus faecalis; details: 8 MDR/VRE E. faecalis, mean, compound at ¼ of MIC
Description: as §3, §4
Enterococcus faecalis: 8 multidrug resistant in vivo-selected clinical isolates. […] Expressing change in the cell wall precursor target as a major resistance mechanism (VanA gene expression).

E. faecalis = assay: MIC, microdilution broth, multiresistant clinical isolates (Table 1A); type: cell-based; details: Enterococcus faecalis; ten multiresistant clinical isolates; read-out: Median MIC E. faecalis
Description: (§5) Cell growth was tested using the Minimal Inhibitory Concentration (MIC) susceptibility tests by use of the microdilution broth method in accordance to the NCCLS Guidelines (NCCLS Guidelines, Methods for Dilution Antimicrobial Susceptibility Tests for Bacteria That Grow Aerobically; Approved Standard, Sixth Edition, Volume 23; Number 2). The minimum inhibitory concentration (MIC), is defined as the lowest concentration of drug which inhibits growth of the test organism, in the sense that no visible growth is detected (total inhibition of growth). In example 2, MIC of the compounds used on fungal microorgansims was determined from the IC90 measurements according to NCCLS Guidelines.
(§6) A log phase culture of bacteria was diluted with fresh pre-warmed Mueller-Hinton medium and adjusted to a defined OD at 600 nm in order to give a final concentration of 1×10^4-5 bacteria/ml medium. The bacterial culture was transferred to microtiter-plates and culture was added to each well. […] Trays were incubated at 37° C. by shaking in a robot analyzer, PowerWavex, software KC^4′ Kebo. Lab, Copenhagen, for 16 h and optical densities were measured at 600 nm during the incubation time in order to record growth curves. Wells containing bacterial culture without drug were used as controls to ensure correct inoculum size and bacterial growth during the incubation. Cultures were tested in order to detect contaminations. Each experiment was repeated in triplicate.
(§7) Ten strains in each test group.

S. epidermidis = assay: as above; type: cell-based; details: Staphylococcus epidermidis; ten multiresistant clinical isolates; read-out: Median MIC S. epidermidis
Description: as §5, §6, §7

S. aureus = assay: as above; type: cell-based; details: Staphylococcus aureus; ten multiresistant clinical isolates; read-out: Median MIC S. aureus
Description: as §5, §6, §7

E. coli = assay: as above; type: cell-based; details: Escherichia coli; ten multiresistant clinical isolates; read-out: Median MIC E. coli
Description: as §5, §6, §7

E. faecium = assay: as above; type: cell-based; details: Enterococcus faecium; ten multiresistant clinical isolates; read-out: Median MIC E. faecium
Description: as §5, §6, §7

Streptococci = assay: MIC on multiresistant and susceptible clinical isolates (Table 1b); type: cell-based; details: 8 multiresistant and 8 susceptible isolates
Description: as §5
(§8) A log phase culture of bacteria was diluted with fresh pre-warmed Mueller-Hinton medium and adjusted to a defined OD at 600 nm in order to give a final concentration of 1×10^4-5 bacteria/ml medium. The bacterial culture was transferred to microtiter-plates and culture was added to each well. Drug was added to the bacterial culture in the wells as two-fold dilution series of drug in order to give final concentrations ranging from 0.03 to 128 μg/ml. Trays were incubated at 37° C. by shaking in a robot analyzer, PowerWavex, software KC^4′ Kebo. Lab, Copenhagen, for 16 h and optical densities were measured at 600 nm during the incubation time in order to record growth curves. Wells containing bacterial culture without drug were used as controls to ensure correct inoculum size and bacterial growth during the incubation. Cultures were tested in order to detect contaminations. Each experiment was repeated in triplicate. MIC values represent the mean values of two separate triplicate experiments. Intra- and interassay variation was <5%.
(§9) Clinically relevant human bacterial isolates of Staphylococci, Streptococci, Micrococci and Gram negative species was cultured and assayed as described above for susceptibility towards the compounds listed in table 1b.

[6] = test system: Staphylococci, Micrococci. Including MRSA; assay: as above; type: cell-based; details: Micrococci incl. MRSA, 8 multiresistant and 8 susceptible isolates
Description: as §5, §8, §9

Gram negative sp. = assay: as above; type: cell-based; details: 8 multiresistant and 8 susceptible isolates
Description: as §5, §8, §9

Candida albicans = assay: Synergy with fluconazole, broth microdilution NCCLS M27-A (Table 10); type: cell-based
Description: The isolates were subcultured for 24 h on Sabouraud glucose agar before susceptibility testing. Broth microdilution tests were performed according to NCCLS document M27-A (Ref: National Commitee for Clinical Laboratory Standards. (1997). Reference Method for Broth Dilution Antifungal Susceptibility Testing of Yeasts: Approved Standard M27-A. NCCLS, Wayne, Pa.) Microtitre plates were read spectrophotometrically at 530 nm, after mixing the wells by pipetting to resuspend yeast sediments. […] The Fractional Inhibitory Concentration (FIC) was calculated for the anti-infective agent alone and in combination with compound 3 and 4 (see table 4) as described above. Synergy was defined as a FIC index of <0.5.

Candida species = assay: MIC on clinical isolates of Candida species, broth microdilution NCCLS M27-A (Table 3); type: cell-based; details: Candida species incl. fluconazole resistant; MIC = 90% growth inhibition
Description: The antibacterial effect of demethylated/dealkylated phenothiazine or thioxanthene compounds were studied by growth inhibition studies exposing cells to 0-32 μg/ml of drug. Each experiment was repeated in triplicate. MIC values represent the mean values of two separate triplicate experiments.
4 clinical isolates of Candida species (including 3 fluconazole resistant isolates) were subcultured for 24 h on Sabouraud glucose agar before susceptibility testing. Broth microdilution tests were performed according to NCCLS document M27-A (Ref: National Commitee for Clinical Laboratory Standards. (1997). Reference Method for Broth Dilution Antifungal Susceptibility Testing of Yeasts: Approved Standard M27-A. NCCLS, Wayne, Pa.). Microtitre plates were read spectrophotometrically at 530 nm, after mixing the wells by pipetting to resuspend yeast sediments. In this experiment, the MIC was defined as the lowest drug dilution resulting in 90% growth inhibition.

Enterococci sp. = assay: MIC on multiresistant and susceptible clinical isolates of Enterococci (Table 2); type: cell-based, Enterococcus faecalis and Enterococcus faecium; details: 8 multiresistant (VanA, VanB, HLAR, BLR,CR) and 8 susceptible isolates
Description: as §5
as §8, with “Wells containing bacterial culture without drug were used as controls to ensure correct inoculum size and bacterial growth during the incubation. Cultures were tested in order to detect contaminations. Each experiment was repeated in triplicate. MIC values represent the mean values of two separate triplicate experiments. Intra- and interassay variation was <5%.” left out

SMILES: Cc1cn([C@H]2C[C@H](N=[N+]=[N-])[C@@H](CO)O2)c(=O)[nH]c1=O [AZT, 3′-Azido-3′-deoxythymidine]
EC50 (strain IIIB of HIV-1; 144 h, single agent, MT4 cells, six days, read-out: EC50): 0.05 µM
EC50 (strain IIIB of HIV-1; MT4, read-out: EC50 A + C3 (1 μM), AZT in presence of compound 3 at 1 μM): 0.01 µM
CC50 (MT4 cells): > 3 µM
CC50 at 6 days [1]: > 3 µM

MIC (E. faecalis): 1 mg/L (≈ 2.49 µM)
MIC (S. epidermidis): 8 mg/L (≈ 20 µM)
MIC (S. aureus): 8 mg/L (≈ 20 µM)
MIC (E. coli): 16 mg/L (≈ 39.9 µM)
MIC (E. faecium): 1 mg/L (≈ 2.49 µM)
SMILES: OCCN1CCN(CC/C=C2\c3ccccc3Sc3ccc(Cl)cc32)CC1 [Compound 2, trans-clopentixol]
FIC index [2]: 0.37
FIC index ([3]; with Ampicillin): 0.47
FIC index ([3]; with Ciprofloxacin): 0.44
FIC index ([3]; with Gentamycin): 0.44
FIC index ([3]; with Tetracycline): 0.47
Maximal reversal of resistance: concentration of compound [4]: 2.0 µg/mL
FIC index ([5]; with Ciprofloxacin): 0.47
FIC index ([5]; with Dicloxacillin): 0.47

SMILES: OCCN1CCC(CC/C=C2\c3ccccc3Sc3ccc(Cl)cc32)CC1 [Compound 4]
MIC Mean (Streptococci): 1 mg/L (≈ 2.5 µM)
MIC Mean [6]: 1 mg/L (≈ 2.5 µM)
MIC Mean (Gram negative sp.): 3 mg/L (≈ 7.5 µM)
FIC index [2]: 0.34
FIC index ([3]; with Ampicillin): 0.44
FIC index ([3]; with Ciprofloxacin): 0.47
FIC index ([3]; with Gentamycin): 0.47
FIC index ([3]; with Tetracycline): 0.44
MIC (Candida albicans; Candida albicans, compound alone, read-out: MIC Compound): 1.5 mg/L
FIC index (Candida albicans; in combination with fluconazole): 0.39
FIC index ([5]; with Ciprofloxacin): 0.34
FIC index ([5]; with Dicloxacillin): 0.34
MIC Mean (range) (Candida species): 1.5 (0.125-2.0) μ/ml
MIC Mean (range) (Enterococci sp.): 0.5 (0.125-1.0) μ/ml
